Source: patent US10562912B2 (C&C Research Laboratories, priority 2013, dated 2020)

Columns and labels:
Assay type in all cases: cell-based
STAT3 = target: T1, STAT3 (Homo sapiens, UniProt P40763); assay: STAT3 reporter gene assay (luciferase), LNCaP stable cell line (pSTAT3-TA-luc), IL-6 stimulation
T1 construct: plasmid pSTAT3-TA-luc), which contains a stably operating STAT3 promoter; endogenous in cells
Outline: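 LNCaP cells stably carrying pSTAT3-TA-luc, in RPMI1640 with 3% DCC-FBS, were treated with compound and then stimulated with 10 ng/mL IL-6 for 24–48 h at 37 °C. Luciferase activity was measured in lysates. A parallel plate measured viability by CellTiter-Glo, with stimulated 0.1% DMSO wells as the positive control.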

LNCaP = assay: Cell growth inhibition assay, prostate cancer cell line LNCaP (medium with 10 ng/mL IL-6); settings: Homo sapiens, medium supplemented with 10 ng/mL of IL-6, 10,000 cells/well
MDA-MB-231 = assay: Cell growth inhibition assay, breast cancer cell line MDA-MB-231; settings: Homo sapiens; MDA-MB-231 breast cancer cell line, 5,000 cells/well

T1 sequence (P40763 whole entry): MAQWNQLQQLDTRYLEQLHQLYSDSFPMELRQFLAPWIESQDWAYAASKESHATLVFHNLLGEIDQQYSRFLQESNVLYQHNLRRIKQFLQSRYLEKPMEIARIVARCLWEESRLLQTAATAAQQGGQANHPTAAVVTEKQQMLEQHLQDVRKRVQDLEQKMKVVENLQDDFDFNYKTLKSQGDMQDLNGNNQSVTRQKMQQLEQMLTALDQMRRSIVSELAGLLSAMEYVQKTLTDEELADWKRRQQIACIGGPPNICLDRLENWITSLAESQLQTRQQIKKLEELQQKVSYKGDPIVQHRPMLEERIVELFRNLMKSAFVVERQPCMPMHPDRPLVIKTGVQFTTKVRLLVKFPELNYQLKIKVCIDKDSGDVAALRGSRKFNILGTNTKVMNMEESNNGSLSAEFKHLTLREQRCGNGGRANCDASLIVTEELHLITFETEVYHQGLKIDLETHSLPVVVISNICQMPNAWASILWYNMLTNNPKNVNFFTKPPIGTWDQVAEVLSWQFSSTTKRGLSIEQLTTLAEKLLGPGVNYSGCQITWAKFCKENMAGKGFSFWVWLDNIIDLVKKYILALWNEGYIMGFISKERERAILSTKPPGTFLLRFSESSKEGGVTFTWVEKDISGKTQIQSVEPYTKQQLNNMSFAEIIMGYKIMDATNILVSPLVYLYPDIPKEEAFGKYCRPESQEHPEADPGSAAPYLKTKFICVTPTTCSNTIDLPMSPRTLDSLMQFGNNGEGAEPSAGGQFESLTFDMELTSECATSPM

Structure (SMILES)	IC50 (STAT3) [µM]	IC50 (LNCaP) [µM]	IC50 (MDA-MB-231) [µM]
CN(C)C(=O)c1cc(NC(=O)c2cc3ccc(NS(C)(=O)=O)cc3[nH]2)cc(-c2ccc(F)cc2F)c1 [Example 319, N-(5-(dimethylcarbamoyl)-2′,4′-difluoro-[1,1′-biphenyl]-3-yl)-6-(methylsulfonamido)-1H-indole-2-carboxamide]	> 10	> 10	> 10
CC(C)(C)OC(=O)n1cccc1-c1cc(NC(=O)c2cc3ccc(NS(C)(=O)=O)cc3[nH]2)cc(-c2ccc(F)cc2F)c1 [Example 350, tert-butyl 2-(2′,4′-difluoro-5-(6-(methylsulfonamido)-1H-indole-2-carboxamido)-[1,1′-biphenyl]-3-yl)-1H-pyrrole-1-carboxylate]	1.5	6.5	2.3
COc1cc(OC(F)(F)F)cc(C(C)(C)c2cc(NC(=O)c3cc4cc(NS(C)(=O)=O)ccc4s3)cc(OC(F)F)c2)c1 [Example 41, N-(3-(difluoromethoxy)-5-(2-(3-methoxy-5-(trifluoromethoxy)phenyl)propan-2-yl)phenyl)-5-(methylsulfonamido)benzo[b]thiophene-2-carboxamide]	0.028	0.11	0.024
Cc1c(C(=O)Nc2cccc(C(C)(C)c3ccc(F)cc3)c2)sc2ccc(NS(C)(=O)=O)cc12 [Example 52, N-(3-(2-(4-fluorophenyl)propan-2-yl)phenyl)-3-methyl-5-(methylsulfonamido)benzo[b]thiophene-2-carboxamide]	1.5	4.7	0.7
CS(=O)(=O)Nc1ccc2cc(C(=O)Nc3cc(-c4cccs4)cc(-c4ccc(F)cc4F)c3)[nH]c2c1 [Example 354, N-(2′,4′-difluoro-5-(thiophen-2-yl)-[1,1′-biphenyl]-3-yl)-6-(methylsulfonamido)-1H-indole-2-carboxamide]	0.33	5.7	0.71
CC(C)(c1cccc(NC(=O)c2cc3ccc(NS(C)(=O)=O)cc3[nH]2)c1)c1ccc(F)cc1F [Example 11, N-(3-(2-(2,4-difluorophenyl)propan-2-yl)phenyl)-6-(methylsulfonamido)-1H-indole-2-carboxamide]	0.2	1.8	0.06
CC(C)(c1cc(Br)cc(NC(=O)c2cc3ccc(NS(C)(=O)=O)cc3[nH]2)c1)c1cccc(OC(F)F)c1 [Example 20, N-(3-bromo-5-(2-(3-(difluoromethoxy)phenyl)propan-2-yl)phenyl)-6-(methylsulfonamido)-1H-indole-2-carboxamide]	0.29	1.1	0.15
CC(C)(c1ccc(F)cc1)c1cc(Cl)cc(NC(=O)c2cc3cc(NS(C)(=O)=O)ccc3s2)c1 [Example 40, N-(3-chloro-5-(2-(4-fluorophenyl)propan-2-yl)phenyl)-5-(methylsulfonamido)benzo[b]thiophene-2-carboxamide]	0.076	0.37	0.006
CC(C)(c1cccc(NC(=O)c2cc3ccc(NS(C)(=O)=O)cc3[nH]2)c1)c1cccc(OC(F)(F)F)c1 [Example 8, 6-(methylsulfonamido)-N-(3-(2-(3-(trifluoromethoxy)phenyl)propan-2-yl)phenyl)-1H-indole-2-carboxamide]	0.12	0.87	0.018
Cn1cccc1-c1cc(NC(=O)c2cc3ccc(NS(C)(=O)=O)cc3[nH]2)cc(-c2ccc(F)cc2F)c1 [Example 353, N-(2′,4′-difluoro-5-(1-methyl-1H-pyrrol-2-yl)-[1,1′-biphenyl]-3-yl)-6-(methylsulfonamido)-1H-indole-2-carboxamide]	0.76	2.4	0.44
CS(=O)(=O)Nc1ccc2cc(C(=O)Nc3cc(OC(F)F)cc(-c4ccc(F)cc4F)c3)[nH]c2c1 [Example 369, N-(5-(difluoromethoxy)-2′,4′-difluoro-[1,1′-biphenyl]-3-yl)-6-(methylsulfonamido)-1H-indole-2-carboxamide]	0.7	3.8	0.28
CC(C)(c1ccc(F)cc1)c1cccc(NC(=O)c2cc3cc(NS(C)(=O)=O)ccc3s2)c1 [Example 26, N-(3-(2-(4-fluorophenyl)propan-2-yl)phenyl)-5-(methylsulfonamido)benzo[b]thiophene-2-carboxamide]	0.059	0.36	0.008

The remaining lines, values ahead:

IC50 (STAT3) [µM]	IC50 (LNCaP) [µM]	IC50 (MDA-MB-231) [µM]	Structure (SMILES)
0.43	1.7	0.18	COc1cc(OC(F)(F)F)cc(C(C)c2cccc(NC(=O)c3cc4ccc(NS(C)(=O)=O)cc4[nH]3)c2)c1 (stereo not drawn) [Example 10, N-(3-(1-(3-methoxy-5-(trifluoromethoxy)phenyl)ethyl)phenyl)-6-(methylsulfonamido)-1H-indole-2-carboxamide]
5.2	> 10	4.7	CC(C)(c1cccc(NC(=O)c2cc3ccc(N(CC(N)=O)S(C)(=O)=O)cc3[nH]2)c1)c1cc(O)cc(OC(F)(F)F)c1 [Example 436, 6-(N-(2-amino-2-oxoethyl)methylsulfonamido)-N-(3-(2-(3-hydroxy-5-(trifluoromethoxy)phenyl)propan-2-yl)phenyl)-1H-indole-2-carboxamide]
0.23	0.72	0.02	COc1cc2cc(C(=O)Nc3cc(Br)cc(-c4ccc(F)cc4F)c3)[nH]c2cc1NS(C)(=O)=O [Example 303, N-(5-bromo-2′,4′-difluoro-[1,1′-biphenyl]-3-yl)-5-methoxy-6-(methylsulfonamido)-1H-indole-2-carboxamide]
> 10	> 10	> 10	CS(=O)(=O)Nc1ccc2cc(C(=O)Nc3cc(-c4cnc(N)nc4)cc(-c4ccc(F)cc4F)c3)[nH]c2c1 [Example 361, N-(5-(2-aminopyrimidin-5-yl)-2′,4′-difluoro-[1,1′-biphenyl]-3-yl)-6-(methylsulfonamido)-1H-indole-2-carboxamide]
0.15	0.5	0.1	CS(=O)(=O)Nc1ccc2sc(C(=O)Nc3cccc(C4(c5ccc(F)cc5)CC4)c3)cc2c1 [Example 424, N-(3-(1-(4-fluorophenyl)cyclopropyl)phenyl)-5-(methylsulfonamido)benzo[b]thiophene-2-carboxamide]
0.8	3.2	0.39	CS(=O)(=O)Nc1ccc2cc(C(=O)Nc3cc(Br)cc(-c4ccc(F)cc4F)c3)sc2c1 [Example 310, N-(5-bromo-2′,4′-difluoro-[1,1′-biphenyl]-3-yl)-6-(methylsulfonamido)benzo[b]thiophene-2-carboxamide]
0.21	1.8	0.28	CS(=O)(=O)Nc1ccc2cc(C(=O)Nc3cc(-c4ccsc4)cc(-c4ccc(F)cc4F)c3)[nH]c2c1 [Example 355, N-(2′,4′-difluoro-5-(thiophen-3-yl)-[1,1′-biphenyl]-3-yl)-6-(methylsulfonamido)-1H-indole-2-carboxamide]
4.3	> 10	3.3	CC(C)(c1ccc(F)cc1)c1cccc(NC(=O)c2sc3cc(NS(C)(=O)=O)ccc3c2Cl)c1 [Example 110, 3-chloro-N-(3-(2-(4-fluorophenyl)propan-2-yl)phenyl)-6-(methylsulfonamido)benzo[b]thiophene-2-carboxamide]
6.2	> 10	> 10	CS(=O)(=O)Nc1ccc2cc(C(=O)Nc3cc(C(=O)N4CCCCC4)cc(-c4ccc(F)cc4F)c3)[nH]c2c1 [Example 320, N-(2′,4′-difluoro-5-(piperidine-1-carbonyl)-[1,1′-biphenyl]-3-yl)-6-(methylsulfonamido)-1H-indole-2-carboxamide]
0.046	0.39	0.016	CC(C)(c1cccc(NC(=O)c2cc3cc(NS(C)(=O)=O)ccc3s2)c1)c1cccc(OC(F)(F)F)c1 [Example 37, 5-(methylsulfonamido)-N-(3-(2-(3-(trifluoromethoxy)phenyl)propan-2-yl)phenyl)benzo[b]thiophene-2-carboxamide]
0.14	1.1	0.028	CN(C)c1cc(NC(=O)c2cc3cc(NS(C)(=O)=O)ccc3s2)cc(-c2ccc(F)cc2F)c1 [Example 375, N-(5-(dimethylamino)-2′,4′-difluoro-[1,1′-biphenyl]-3-yl)-5-(methylsulfonamido)benzo[b]thiophene-2-carboxamide]
0.082	0.13	0.029	CC(C)(c1cc(Br)cc(NC(=O)c2cc3cc(NS(C)(=O)=O)ccc3s2)c1)c1cccc(OC(F)F)c1 [Example 46, N-(3-bromo-5-(2-(3-(difluoromethoxy)phenyl)propan-2-yl)phenyl)-5-(methylsulfonamido)benzo[b]thiophene-2-carboxamide]
0.13	0.55	0.062	CC(C)(c1ccc(F)cc1)c1cc(Br)cc(NC(=O)c2cc3ccc(NS(C)(=O)=O)cc3[nH]2)c1 [Example 14, N-(3-bromo-5-(2-(4-fluorophenyl)propan-2-yl)phenyl)-6-(methylsulfonamido)-1H-indole-2-carboxamide]
1.7	8	1.2	CS(=O)(=O)Nc1ccc2cc(C(=O)Nc3cc(-c4ccc(C(F)(F)F)nc4)cc(-c4ccc(F)cc4F)c3)[nH]c2c1 [Example 358, N-(2′,4′-difluoro-5-(6-(trifluoromethyl)pyridin-3-yl)-[1,1′-biphenyl]-3-yl)-6-(methylsulfonamido)-1H-indole-2-carboxamide]
> 10	> 10	> 10	CC(C)(c1ccc(F)cc1)c1cccc(NC(=O)c2cc3ccc(S(C)(=O)=O)cc3[nH]2)c1 [Example 6, N-(3-(2-(4-fluorophenyl)propan-2-yl)phenyl)-6-(methylsulfonyl)-1H-indole-2-carboxamide]
